Experimental data reported in paper PMC8448162, “Single- and Multiple-Ascending-Dose Study of the Safety, Tolerability, and Pharmacokinetics of the Polymyxin Derivative SPR206” (Antimicrobial Agents and Chemotherapy, 2021).
Positions of bridges follow the written chain, without caps; N, C: chain ends. Non-standard residues stand in square brackets, D forms with d. Residues, ends and D or L forms follow the SMILES beside them. *: point of attachment. X1 = NC[C@@H](CC(=O)*)c1cccc(Cl)c1; Dab = NCC[C@H](N)C(=O)O; Dap = NC[C@H](N)C(=O)O

What was measured:
clinical = details: human, in vivo; for CL renal: CLR (renal clearance)
Description: Maximum plasma concentration (Cmax), area under the concentration-time curve from time zero to last measurable time point (AUC0–t), area under the concentration-time curve from time zero to infinity (AUC0–inf), area under the concentration-time curve from time zero to tau (AUC0–tau), time to maximum concentration (Tmax), terminal elimination rate constant (kel), terminal half-life (t1/2), terminal clearance (CL), and volume of distribution (Vz) were determined. In addition, area under the concentration-time curve from 0 to 24 h after the start of infusion (AUC0–24) was determined for the SAD phase, and area under the concentration-time curve from time zero to 8 h from start of infusion (AUC0–8) on day 1 and 0 to 48 h (AUC0–48) following the last dose on day 14 as well as predose trough concentrations were determined for the MAD phase. Urine parameters included cumulative amount of drug excreted in successive urine intervals (Ae), renal clearance (CLR), fraction of cumulative fraction of dose recovered in urine as unchanged drug (Fe), and percentage fraction of cumulative fraction of dose recovered in urine as unchanged drug (Fe%). PK parameters were determined by noncompartmental analysis using Phoenix WinNonlin 8.1.
For the SAD phase, blood samples were obtained predose and at 30, 60, 75, 90, 105, 120, and 150 min and at 3, 5, 8, 12, and 24 h following the start of infusion. Urine was collected for PK assessment predose and over the intervals of 0 to 4 h, 4 to 8 h, 8 to 12 h, and 12 to 24 h after the start of infusion.
In the MAD phase, plasma samples for PK analysis were collected (i) on day 1—pre-dose and at 30, 60, 75, 90, 105, 120, and 150 min and at 3, 5, and 8 h following start of the first infusion; (ii) prior to the morning dose (within 10 min) on days 2, 3, 5, 7, 9, 11, and 13; and (iii) predose and 30, 75, 90, 105, 120, and 150 min and 3, 5, 8, and 12 h (day 14), 24, 36 (day 15), and 48 h (day 16) following start of the last infusion. Urine was collected for PK assessment on day 1 predose, over the intervals 0 to 4 h and 4 to 8 h after start of first infusion, and on days 14 and 15 over the intervals 0 to 4 h, 4 to 8 h, 8 to 12 h, and 12 to 24 h after start of day 14 infusion. Total 24-h urine for calculating CrCl was collected from the morning of day −1 to predose on day 1 and on days 15 and 16 over the interval from 24 to 48 h after the start of the day 14 infusion. Urine creatinine concentrations were measured using 24-h collections prior to the first dose on day 1 and over the 24 to 48 h following start of infusion of the last dose (day 14). Plasma and urine samples for SPR206 levels were analyzed using a validated liquid chromatography-tandem mass spectrometry (LC-MS/MS) method. The assay range for SPR206 was 50 to 5,000 ng/ml in plasma and 100 to 50,000 ng/ml in urine. In plasma, assay precision was 1.3 to 7.7%, accuracy was 1.2 to 9.5%, stability was 194 h at 4°C, and reproducibility was 98.4%. In urine, assay precision was 1.7 to 7.5%, accuracy was −4.8 to 7.3%, stability was 147 h at 4°C, and reproducibility was 97.8%.

healthy subjects = assay: Safety and tolerability (adverse events, laboratory tests, ECG), first-in-human SAD/MAD study, 1-h i.v. infusion; details: in vivo
[1] = in vivo; cited from earlier work
kidney cell = details: cited from earlier work

CC(C)C[C@@H]1NC(=O)[C@@H](Cc2ccccc2)NC(=O)[C@H](CCN)NC(=O)[C@@H](NC(=O)[C@H](CN)NC(=O)[C@@H](NC(=O)C[C@H](CN)c2cccc(Cl)c2)[C@@H](C)O)CCNC(=O)[C@H]([C@@H](C)O)NC(=O)[C@H](CCN)NC(=O)[C@H](CCN)NC1=O [SPR206] (X1-T[Dap][Dab][Dab][dF]L[Dab][Dab]T; lactam 3-C (inferred))
CL renal (clinical; 10 mg): 0.567 mL/min
CL renal (clinical; 25 mg): 4 mL/min
CL renal (clinical; 50 mg): 13.7 mL/min
CL renal (clinical; 100 mg): 25.8 mL/min
CLR (renal clearance) (clinical; 150 mg): 1.55 ± 0.17 L/h
CL renal (clinical; 150 mg): 35.5 mL/min
CL renal (clinical; 200 mg): 29.5 mL/min
CL renal (clinical; 300 mg): 35.5 mL/min
CL renal (clinical; 400 mg): 32.8 mL/min
Fe (%) (clinical; iv, 25 mg): 5.32 ± 4.38%
Fe (fraction of dose recovered in urine as unchanged drug) (clinical; iv, 25 mg): 0.05 ± 0.04
Fe (fraction of dose recovered in urine as unchanged drug) (clinical; iv, 50 mg): 0.18 ± 0.02
Fe (fraction of dose recovered in urine as unchanged drug) (clinical; iv, 100 mg): 0.27 ± 0.05
dose excreted (clinical; iv, 200 mg, Fe (%)): 35.7 ± 3.85%
dose excreted (clinical; iv, 200 mg, Fe (fraction of dose recovered in urine as unchanged drug)): 36 ± 4%
dose excreted (clinical; iv, 300 mg, Fe (fraction of dose recovered in urine as unchanged drug)): 49 ± 8%
dose excreted (clinical; iv, 400 mg, Fe (%)): 53.4 ± 6.21%
dose excreted (clinical; iv, 400 mg, Fe (fraction of dose recovered in urine as unchanged drug)): 53 ± 6%
subjects with oral hypoesthesia (healthy subjects): 6 subjects
subjects with oral paresthesia (healthy subjects): 5 subjects
accumulation after repeat dosing [1]: no apparent accumulation
kidney cell cytotoxicity compared with PMB (kidney cell): lower kidney cell cytotoxicity
